Test results published in article PMC8872768, “Discovery of ultrafast myosin, its amino acid sequence, and structural features” (Proceedings of the National Academy of Sciences of the …, 2022).

Key:
CbXI-2 MD = target: T1, CbXI-2 MD (Chara braunii, UniProt A0A388M2Q8); assay: actin-activated Mg2+-ATPase, phosphate release; type: biochemical; conditions: 2 mM ATP, F-actin 0.125-4 mg/mL, 25 mM KCl, 4 mM MgCl2, pH 7.4, 25 C
T1 construct: gene CBR_g48390; motor domain only, no IQ motifs; baculovirus / insect cells

CbXI-3 MD = target: T2, CbXI-3 MD (Chara braunii, UniProt A0A388L5N7); assay: actin-activated Mg2+-ATPase, phosphate release; type: biochemical; conditions: 2 mM ATP, F-actin 0.125-4 mg/mL, 25 mM KCl, 4 mM MgCl2, pH 7.4, 25 C
T2 construct: gene CBR_g24025; motor domain only, no IQ motifs; baculovirus / insect cells
T2 sequence (A0A388L5N7 1-740 limits assumed): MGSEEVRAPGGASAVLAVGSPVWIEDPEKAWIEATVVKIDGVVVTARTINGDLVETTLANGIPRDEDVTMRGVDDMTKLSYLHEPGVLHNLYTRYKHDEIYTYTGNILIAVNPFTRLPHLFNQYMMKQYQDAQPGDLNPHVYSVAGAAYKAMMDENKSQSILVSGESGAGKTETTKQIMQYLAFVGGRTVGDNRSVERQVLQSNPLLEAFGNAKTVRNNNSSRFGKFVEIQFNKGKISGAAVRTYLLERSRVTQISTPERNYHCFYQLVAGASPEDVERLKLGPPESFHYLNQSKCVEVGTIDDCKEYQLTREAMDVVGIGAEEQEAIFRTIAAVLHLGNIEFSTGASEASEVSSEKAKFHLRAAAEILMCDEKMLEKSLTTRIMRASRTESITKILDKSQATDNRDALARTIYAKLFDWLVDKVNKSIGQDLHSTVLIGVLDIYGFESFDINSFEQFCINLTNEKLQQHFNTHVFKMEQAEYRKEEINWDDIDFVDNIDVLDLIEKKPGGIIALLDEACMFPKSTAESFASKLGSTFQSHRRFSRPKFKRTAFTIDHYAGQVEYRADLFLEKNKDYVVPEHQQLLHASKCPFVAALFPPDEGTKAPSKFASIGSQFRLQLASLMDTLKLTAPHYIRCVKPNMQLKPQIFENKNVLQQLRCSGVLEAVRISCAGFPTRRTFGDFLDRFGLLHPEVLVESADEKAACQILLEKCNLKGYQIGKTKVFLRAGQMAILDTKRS

T1 sequence (A0A388M2Q8 1-744 limits assumed): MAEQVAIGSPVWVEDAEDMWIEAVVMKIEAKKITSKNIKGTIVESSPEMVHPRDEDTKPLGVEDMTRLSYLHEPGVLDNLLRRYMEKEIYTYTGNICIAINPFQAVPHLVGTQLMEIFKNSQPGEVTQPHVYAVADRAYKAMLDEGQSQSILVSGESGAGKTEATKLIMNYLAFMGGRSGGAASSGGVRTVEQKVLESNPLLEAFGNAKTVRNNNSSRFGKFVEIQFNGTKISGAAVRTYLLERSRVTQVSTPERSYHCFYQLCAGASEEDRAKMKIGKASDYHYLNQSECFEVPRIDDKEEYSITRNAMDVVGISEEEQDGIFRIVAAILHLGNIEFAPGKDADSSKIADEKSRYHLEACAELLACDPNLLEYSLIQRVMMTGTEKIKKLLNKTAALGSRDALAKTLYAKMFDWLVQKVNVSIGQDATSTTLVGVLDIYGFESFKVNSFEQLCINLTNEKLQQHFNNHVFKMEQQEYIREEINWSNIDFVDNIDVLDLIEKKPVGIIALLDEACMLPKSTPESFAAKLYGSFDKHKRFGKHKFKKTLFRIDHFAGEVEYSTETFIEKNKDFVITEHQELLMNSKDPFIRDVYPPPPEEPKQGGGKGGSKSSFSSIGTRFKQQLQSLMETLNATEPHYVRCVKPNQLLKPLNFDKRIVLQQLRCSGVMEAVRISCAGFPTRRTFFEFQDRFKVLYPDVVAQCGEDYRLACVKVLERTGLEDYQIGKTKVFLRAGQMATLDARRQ

Compound: Nc1ncnc2c1ncn2[C@@H]1O[C@H](COP(=O)(O)OP(=O)(O)OP(=O)(O)O)[C@@H](O)[C@H]1O [ATP]
- actin-activated Mg2+-ATPase, phosphate release (CbXI-2 MD): The ATPase activities of CbXI-1, CbXI-2, CbXI-3, and CbXI-4 MDs were plotted
- actin-activated Mg2+-ATPase, phosphate release (CbXI-3 MD): The ATPase activities of CbXI-1, CbXI-2, CbXI-3, and CbXI-4 MDs were plotted
